{"source": "PubChem BioAssay (NCI)", "assay_in_all_cases": "DTP human tumour cell line panel, 48 h", "key": {"786-0 renal": {"system": "786-0 renal"}, "A498 renal": {"system": "A498 renal"}, "A549 NSCLC": {"system": "A549 NSCLC"}, "ACHN renal": {"system": "ACHN renal"}, "BT-549 breast": {"system": "BT-549 breast"}, "CAKI-1 renal": {"system": "CAKI-1 renal"}, "CCRF-CEM leukemia": {"system": "CCRF-CEM leukemia"}, "DU-145 prostate": {"system": "DU-145 prostate"}, "EKVX NSCLC": {"system": "EKVX NSCLC"}, "HCT-116 colon": {"system": "HCT-116 colon"}, "HCT-15 colon": {"system": "HCT-15 colon"}, "HL-60(TB) leukemia": {"system": "HL-60(TB) leukemia"}, "HOP-62 NSCLC": {"system": "HOP-62 NSCLC"}, "HT29 colon": {"system": "HT29 colon"}, "K-562 leukemia": {"system": "K-562 leukemia"}, "KM12 colon": {"system": "KM12 colon"}, "LOX IMVI melanoma": {"system": "LOX IMVI melanoma"}, "M14 melanoma": {"system": "M14 melanoma"}, "MDA-MB-231 breast": {"system": "MDA-MB-231 breast"}, "MDA-MB-435": {"system": "MDA-MB-435"}, "MOLT-4 leukemia": {"system": "MOLT-4 leukemia"}, "NCI-H226 lung": {"system": "NCI-H226 lung"}, "NCI-H23 lung": {"system": "NCI-H23 lung"}, "NCI-H460 lung": {"system": "NCI-H460 lung"}, "NCI/ADR-RES ovarian": {"system": "NCI/ADR-RES ovarian"}, "OVCAR-3 ovarian": {"system": "OVCAR-3 ovarian"}, "OVCAR-4 ovarian": {"system": "OVCAR-4 ovarian"}, "OVCAR-5 ovarian": {"system": "OVCAR-5 ovarian"}, "OVCAR-8 ovarian": {"system": "OVCAR-8 ovarian"}, "PC-3 prostate": {"system": "PC-3 prostate"}, "RPMI-8226 leukemia": {"system": "RPMI-8226 leukemia"}, "SF-268 CNS": {"system": "SF-268 CNS"}, "SF-295 CNS": {"system": "SF-295 CNS"}, "SF-539 CNS": {"system": "SF-539 CNS"}, "SK-MEL-28 melanoma": {"system": "SK-MEL-28 melanoma"}, "SK-MEL-5 melanoma": {"system": "SK-MEL-5 melanoma"}, "SK-OV-3 ovarian": {"system": "SK-OV-3 ovarian"}, "SN12C renal": {"system": "SN12C renal"}, "SNB-19 CNS": {"system": "SNB-19 CNS"}, "SNB-75 CNS": {"system": "SNB-75 CNS"}, "SW-620 colon": {"system": "SW-620 colon"}, "T-47D breast": {"system": "T-47D breast"}, "U251 CNS": {"system": "U251 CNS"}, "UACC-257 melanoma": {"system": "UACC-257 melanoma"}, "UACC-62 melanoma": {"system": "UACC-62 melanoma"}, "UO-31 renal": {"system": "UO-31 renal"}}, "note": "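Interpolation was linear, between the two tested concentrations surrounding the appropriate level; five concentrations were tested over 48 hours in 96-well plates. Abbreviation: GI50, concentration required for 50% inhibition of growth. TGI: concentration producing complete growth inhibition.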"}
{"smiles": "NC(N)=N/N=C/c1c(-c2cccs2)nc2sccn12", "values": [{"measurement": "GI50", "setting": "786-0 renal", "result": 9.61, "unit": "µM"}, {"measurement": "TGI", "setting": "786-0 renal", "result": 21.4, "unit": "µM"}, {"measurement": "GI50", "setting": "A498 renal", "result": 4.46, "unit": "µM"}, {"measurement": "TGI", "setting": "A498 renal", "result": 13.6, "unit": "µM"}, {"measurement": "GI50", "setting": "A549 NSCLC", "result": 21.7, "unit": "µM"}, {"measurement": "TGI", "setting": "A549 NSCLC", "result": 45.1, "unit": "µM"}, {"measurement": "GI50", "setting": "ACHN renal", "result": 13.2, "unit": "µM"}, {"measurement": "TGI", "setting": "ACHN renal", "result": 26.5, "unit": "µM"}, {"measurement": "GI50", "setting": "BT-549 breast", "result": 19.3, "unit": "µM"}, {"measurement": "TGI", "setting": "BT-549 breast", "result": 33.6, "unit": "µM"}, {"measurement": "GI50", "setting": "CAKI-1 renal", "result": 2.57, "unit": "µM"}, {"measurement": "TGI", "setting": "CAKI-1 renal", "result": 16, "unit": "µM"}, {"measurement": "GI50", "setting": "CCRF-CEM leukemia", "result": 1.61, "unit": "µM"}, {"measurement": "TGI", "setting": "CCRF-CEM leukemia", "result": 27.1, "unit": "µM"}, {"measurement": "GI50", "setting": "DU-145 prostate", "result": 13.6, "unit": "µM"}, {"measurement": "TGI", "setting": "DU-145 prostate", "result": 26.4, "unit": "µM"}, {"measurement": "GI50", "setting": "EKVX NSCLC", "result": 6.32, "unit": "µM"}, {"measurement": "TGI", "setting": "EKVX NSCLC", "result": 19.1, "unit": "µM"}, {"measurement": "GI50", "setting": "HCT-116 colon", "result": 4.23, "unit": "µM"}, {"measurement": "TGI", "setting": "HCT-116 colon", "result": 17.7, "unit": "µM"}, {"measurement": "GI50", "setting": "HCT-15 colon", "result": 15.4, "unit": "µM"}, {"measurement": "TGI", "setting": "HCT-15 colon", "result": 28.8, "unit": "µM"}, {"measurement": "GI50", "setting": "HL-60(TB) leukemia", "result": 12.8, "unit": "µM"}, {"measurement": "TGI", "setting": "HL-60(TB) leukemia", "result": 39, "unit": "µM"}, {"measurement": "GI50", "setting": "HOP-62 NSCLC", "result": 11.2, "unit": "µM"}, {"measurement": "TGI", "setting": "HOP-62 NSCLC", "result": 23.3, "unit": "µM"}, {"measurement": "GI50", "setting": "HT29 colon", "result": 13.2, "unit": "µM"}, {"measurement": "TGI", "setting": "HT29 colon", "result": 27.1, "unit": "µM"}, {"measurement": "GI50", "setting": "K-562 leukemia", "result": 6.49, "unit": "µM"}, {"measurement": "TGI", "setting": "K-562 leukemia", "result": 21.5, "unit": "µM"}, {"measurement": "GI50", "setting": "KM12 colon", "result": 8.24, "unit": "µM"}, {"measurement": "TGI", "setting": "KM12 colon", "result": 20.7, "unit": "µM"}, {"measurement": "GI50", "setting": "LOX IMVI melanoma", "result": 14, "unit": "µM"}, {"measurement": "TGI", "setting": "LOX IMVI melanoma", "result": 27, "unit": "µM"}, {"measurement": "GI50", "setting": "M14 melanoma", "result": 16.6, "unit": "µM"}, {"measurement": "TGI", "setting": "M14 melanoma", "result": 30.2, "unit": "µM"}, {"measurement": "GI50", "setting": "MDA-MB-231 breast", "result": 13.4, "unit": "µM"}, {"measurement": "TGI", "setting": "MDA-MB-231 breast", "result": 26.7, "unit": "µM"}, {"measurement": "GI50", "setting": "MDA-MB-435", "result": 13.2, "unit": "µM"}, {"measurement": "TGI", "setting": "MDA-MB-435", "result": 25.9, "unit": "µM"}, {"measurement": "GI50", "setting": "MOLT-4 leukemia", "result": 8.48, "unit": "µM"}, {"measurement": "TGI", "setting": "MOLT-4 leukemia", "result": 36.3, "unit": "µM"}, {"measurement": "GI50", "setting": "NCI-H226 lung", "result": 13.2, "unit": "µM"}, {"measurement": "TGI", "setting": "NCI-H226 lung", "result": 26, "unit": "µM"}, {"measurement": "GI50", "setting": "NCI-H23 lung", "result": 14.3, "unit": "µM"}, {"measurement": "TGI", "setting": "NCI-H23 lung", "result": 29, "unit": "µM"}, {"measurement": "GI50", "setting": "NCI-H460 lung", "result": 14.7, "unit": "µM"}, {"measurement": "TGI", "setting": "NCI-H460 lung", "result": 39.7, "unit": "µM"}, {"measurement": "GI50", "setting": "NCI/ADR-RES ovarian", "result": 14.5, "unit": "µM"}, {"measurement": "TGI", "setting": "NCI/ADR-RES ovarian", "result": 27.6, "unit": "µM"}, {"measurement": "GI50", "setting": "OVCAR-3 ovarian", "result": 3.66, "unit": "µM"}, {"measurement": "TGI", "setting": "OVCAR-3 ovarian", "result": 18.1, "unit": "µM"}, {"measurement": "GI50", "setting": "OVCAR-4 ovarian", "result": 5.89, "unit": "µM"}, {"measurement": "TGI", "setting": "OVCAR-4 ovarian", "result": 20, "unit": "µM"}, {"measurement": "GI50", "setting": "OVCAR-5 ovarian", "result": 17.5, "unit": "µM"}, {"measurement": "TGI", "setting": "OVCAR-5 ovarian", "result": 31.3, "unit": "µM"}, {"measurement": "GI50", "setting": "OVCAR-8 ovarian", "result": 24.1, "unit": "µM"}, {"measurement": "TGI", "setting": "OVCAR-8 ovarian", "result": 49, "unit": "µM"}, {"measurement": "GI50", "setting": "PC-3 prostate", "result": 11.1, "unit": "µM"}, {"measurement": "TGI", "setting": "PC-3 prostate", "result": 23.1, "unit": "µM"}, {"measurement": "GI50", "setting": "RPMI-8226 leukemia", "result": 12.6, "unit": "µM"}, {"measurement": "TGI", "setting": "RPMI-8226 leukemia", "result": "> 100", "unit": "µM"}, {"measurement": "GI50", "setting": "SF-268 CNS", "result": 15.2, "unit": "µM"}, {"measurement": "TGI", "setting": "SF-268 CNS", "result": 29.1, "unit": "µM"}, {"measurement": "GI50", "setting": "SF-295 CNS", "result": 11.5, "unit": "µM"}, {"measurement": "TGI", "setting": "SF-295 CNS", "result": 23.6, "unit": "µM"}, {"measurement": "GI50", "setting": "SF-539 CNS", "result": 12.4, "unit": "µM"}, {"measurement": "TGI", "setting": "SF-539 CNS", "result": 25.5, "unit": "µM"}, {"measurement": "GI50", "setting": "SK-MEL-28 melanoma", "result": 12.6, "unit": "µM"}, {"measurement": "TGI", "setting": "SK-MEL-28 melanoma", "result": 25.3, "unit": "µM"}, {"measurement": "GI50", "setting": "SK-MEL-5 melanoma", "result": 13.6, "unit": "µM"}, {"measurement": "TGI", "setting": "SK-MEL-5 melanoma", "result": 26.5, "unit": "µM"}, {"measurement": "GI50", "setting": "SK-OV-3 ovarian", "result": 13, "unit": "µM"}, {"measurement": "TGI", "setting": "SK-OV-3 ovarian", "result": 25.7, "unit": "µM"}, {"measurement": "GI50", "setting": "SN12C renal", "result": 13.4, "unit": "µM"}, {"measurement": "TGI", "setting": "SN12C renal", "result": 26.9, "unit": "µM"}, {"measurement": "GI50", "setting": "SNB-19 CNS", "result": 14.8, "unit": "µM"}, {"measurement": "TGI", "setting": "SNB-19 CNS", "result": 28.6, "unit": "µM"}, {"measurement": "GI50", "setting": "SNB-75 CNS", "result": 5.66, "unit": "µM"}, {"measurement": "TGI", "setting": "SNB-75 CNS", "result": 17.1, "unit": "µM"}, {"measurement": "GI50", "setting": "SW-620 colon", "result": 12.8, "unit": "µM"}, {"measurement": "TGI", "setting": "SW-620 colon", "result": 28.2, "unit": "µM"}, {"measurement": "GI50", "setting": "T-47D breast", "result": 14.6, "unit": "µM"}, {"measurement": "TGI", "setting": "T-47D breast", "result": 28.6, "unit": "µM"}, {"measurement": "GI50", "setting": "U251 CNS", "result": 15.8, "unit": "µM"}, {"measurement": "TGI", "setting": "U251 CNS", "result": 33.9, "unit": "µM"}, {"measurement": "GI50", "setting": "UACC-257 melanoma", "result": 20.3, "unit": "µM"}, {"measurement": "TGI", "setting": "UACC-257 melanoma", "result": 37.7, "unit": "µM"}, {"measurement": "GI50", "setting": "UACC-62 melanoma", "result": 14.8, "unit": "µM"}, {"measurement": "TGI", "setting": "UACC-62 melanoma", "result": 28.3, "unit": "µM"}, {"measurement": "GI50", "setting": "UO-31 renal", "result": 17, "unit": "µM"}, {"measurement": "TGI", "setting": "UO-31 renal", "result": 33.7, "unit": "µM"}]}
